Laboratory results: PMC6678097, “Machilin A Inhibits Tumor Growth and Macrophage M2 Polarization Through the Reduction of Lactic Acid” (Cancers, 2019)

How the values were obtained:
[1] = molecular target: LDHB (Homo sapiens, UniProt P07195); test: LDHB activity (data not shown); type: biochemical; details: concentrations of up to 500 μM
[2] = test system: human liver cytochrome P450 1A1 (CYP1A1); details: cited from earlier work
[3] = test system: HT29 colorectal cancer cells; test: Measurement of intracellular ATP; type: cell-based, human; details: machilin A 30 μM, hypoxia
Method: Intracellular ATP concentration was measured using an ATP bioluminescent somatic cell assay kit (Sigma-Aldrich) as previously described. A total of 1 × 10^6 cells were trypsinized and resuspended in ultrapure water. Luminescence was measured using a spectrofluometer (Spectramax M2, Molecular Devices, CA, USA) immediately after the addition of an ATP enzyme mix to the cell suspension.

[4] = test system: WiDr; test: Lactate production assay; type: cell-based, human; details: normoxic
Method: Cellular lactate production was measured using a lactate fluorometric assay kit (Biovision, Milpitas, CA, USA) as described previously. Phenol red-free DMEM medium without FBS was added to a six-well plate containing subconfluent cells which were then incubated for 1 h at 37 °C. After incubation, the medium of each well was tested using a lactate assay kit (Biovision, Milpitas, CA, USA).

[5] = In vivo toxicity to liver and kidney (serum AST, ALT, creatinine, BUN); details: mice with allograft tumors
Method: LLC and CT26 cells were suspended separately in PBS (5 × 10^5 cells/100 µL PBS) and inoculated in subcutaneously on the back of 7-week-old C57BL/6 mice and BALB/c mice respectively (Orient Bio Inc., Seongnam, Korea; n = 7). One day after the inoculation with tumor cells, mice of the control group (n = 7) were intraperitoneally administrated 100 µL of PBS per day for 18 days. Each of the MA-treated mice were intraperitoneally administrated 0.02, 0.2, or 1 mg MA, respectively, in 100 µL PBS per 20 g body weight, each day for 18 days. All mice were euthanized 19 days after inoculation with the tumor cells, and the tumors were excised and weighed. Length (l) and width (w) of each tumor were measured using a caliper, and the respective volume (V) was calculated according to the formula V = [(l × w^2)/2]. Tumors were immediately removed from euthanized mice and prepared for histological examinations. To test liver and kidney toxicity of MA, at the end of the in vivo allograft experiment blood was collected from each mouse and serum was separated. Biochemical analyses of aspartate aminotransferase (AST), alanine aminotransferase (ALT), creatinine, and blood urea nitrogen (BUN) were performed using a commercial service (Green Cross Co., Yongin, Korea). […]

[6] = test system: LLC tumors; test: Tumor allograft model, LLC cells (tumor growth, immunohistochemistry); type: in vivo, C57BL/6 mice
Method: LLC and CT26 cells were suspended separately in PBS (5 × 10^5 cells/100 µL PBS) and inoculated in subcutaneously on the back of 7-week-old C57BL/6 mice and BALB/c mice respectively (Orient Bio Inc., Seongnam, Korea; n = 7). One day after the inoculation with tumor cells, mice of the control group (n = 7) were intraperitoneally administrated 100 µL of PBS per day for 18 days. Each of the MA-treated mice were intraperitoneally administrated 0.02, 0.2, or 1 mg MA, respectively, in 100 µL PBS per 20 g body weight, each day for 18 days. All mice were euthanized 19 days after inoculation with the tumor cells, and the tumors were excised and weighed. Length (l) and width (w) of each tumor were measured using a caliper, and the respective volume (V) was calculated according to the formula V = [(l × w^2)/2]. Tumors were immediately removed from euthanized mice and prepared for histological examinations. To test liver and kidney toxicity of MA, at the end of the in vivo allograft experiment blood was collected from each mouse and serum was separated. Biochemical analyses of aspartate aminotransferase (AST), alanine aminotransferase (ALT), creatinine, and blood urea nitrogen (BUN) were performed using a commercial service (Green Cross Co., Yongin, Korea). All experimental procedures followed the Guidelines for the Care and Use of Laboratory Animals of the National Institutes of Health of Korea, and were approved by the Institutional Animal Care and Use Committee of Pusan National University, Republic of Korea (PNU-2018-1954, Date of approval: 27th June 2018).
Tumor specimens were immediately removed from euthanized mice, fixed in PBS with 3.7% formalin, and embedded in paraffin for immunohistochemical analyses. The paraffin sections were immunostained using an antibody specific to the endothelial cell marker CD31 (ab28364, Abcam, Cambridge, UK), macrophage marker CD68 (ab125212, Abcam, Cambridge, UK), and M2 phenotype macrophage marker CD206 (ab64693, Abcam, Cambridge, UK). The staining was visualized using a Dako EnVision kit (Dako, Santa Clara, CA, USA), and counterstained with hematoxylin.

[7] = molecular target: T1, purified recombinant LDHA (Homo sapiens, UniProt P00338); test: In vitro LDH activity assay with purified recombinant LDHA; type: biochemical
T1 construct: made in house
Method: A purification of recombinant LDHA was performed as described previously. LDH activity was determined by measuring the decrease of absorbance at 340 nm due to the oxidation of NADH in 20 mM HEPES-K^+, 0.05% bovine serum albumin (BSA), 20 μM NADH, and 2 mM pyruvate (Sigma-Aldrich, St. Louis, MO, USA) at a pH of 7.2 using a spectrofluorometer (Spectramax M2, Molecular Devices, San Jose, CA, USA; excitation 340 nm; emission 460 nm), as described previously. Ten nanograms of recombinant LDHA protein were used in the in vitro LDH activity assay. One microgram of total protein from cell or tissue lysates was used for intracellular or in vivo LDH assays.

[8] = test system: RAW264.7 macrophage cells; test: Viability of macrophage cells, MTT; type: cell-based; details: direct treatment, 24 h
Method: Figure S10. The viabilities of HUVECs and RAW264.7 cells on MA. (A) HUVECs were treated with indicated concentration of machilin A for 24 h. The viabilities of cells were evaluated by MTT assay.
(B ) HUVECs seeded to the Matrigel-coated wells treated with machilin A for 24 h. ( C) Raw 264.7 macrophage cells were treated with indicated concentration of machilin A for 24 h. The viabilities of cells were evaluated by MTT assay.
(1 picture or pasted object on this page, not shown here)

[9] = test system: human liver cytochrome P450 2B6; details: cited from earlier work
[10] = test system: phospholipase Cγ1; set-up: method as in PMID 15554262; details: cited from earlier work

Chain of LDHB (P07195 whole entry, species assumed): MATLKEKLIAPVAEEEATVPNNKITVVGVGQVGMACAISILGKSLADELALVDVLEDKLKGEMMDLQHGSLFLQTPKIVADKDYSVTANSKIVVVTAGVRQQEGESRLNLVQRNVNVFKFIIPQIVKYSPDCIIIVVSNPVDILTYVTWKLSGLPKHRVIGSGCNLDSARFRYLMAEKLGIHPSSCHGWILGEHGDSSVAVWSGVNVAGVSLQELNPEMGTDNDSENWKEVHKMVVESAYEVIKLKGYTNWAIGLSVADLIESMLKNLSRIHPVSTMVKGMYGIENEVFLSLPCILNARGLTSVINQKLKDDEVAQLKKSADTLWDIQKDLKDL

C[C@H](Cc1ccc2c(c1)OCO2)[C@@H](C)Cc1ccc2c(c1)OCO2 [MA, bis(3,4-methylenedioxy)-8,8’-lignan]
effect on LDHB activity [1]: did not affect LDHB activity | inhibitory effect on drug metabolism [2]: selective inhibitory effect | increase of adenosine triphosphate (ATP) synthesis in hypoxic condition [3]: significantly reduced | Lactate (production) ([4]; MA 10 µM): 3220 ± 50 µM | Lactate (production) ([4]; MA 50 µM): 2700 ± 60 µM | in vivo toxicity to liver and kidney [5]: no significant toxic effect | expression of CD206 in macrophages in tumor tissues ([6]; LLC tumors of mice): markedly inhibited | formation of new vessels in tumors (CD31) ([6]; LLC tumors of mice): suppressed the formation of new vessels | presence of macrophages that infiltrated tumor tissues (CD68) ([6]; LLC tumors of mice): no change | volume, weight, and size of tumors ([6]; LLC, 1, 10, or 50 µg/g body weight intraperitoneally daily): significantly reduced | mode of inhibition of LDHA activity ([7]; data not shown): competitive inhibition | IC50 ([7]; purified recombinant LDHA, read-out: inhibitory concentration (IC50) for LDHA activity): 84 µM | growth of RAW264.7 macrophage cells [8]: did not directly inhibit | inhibitory effect on drug metabolism [9]: selective inhibitory effect | effect on phospholipase Cγ1 [10]: inhibiting phospholipase Cγ1
